In article PMC11954145, “Antimicrobial and ADME properties of methoxylated, methylated and nitrated 2-hydroxynaphthalene-1 carboxanilides” (ADMET & DMPK, 2025):
≈ marks a conversion by molar mass, not a printed value. Read-outs that look alike come from different tables or passages of the source.

Key:
[1] = Lipophilicity determination by RP-HPLC (log k, log D); assay type: physicochemical; details: for log D6.5: RP-HPLC C18, MeOH 72 % / acetate-buffered saline pH 6.5; for log D7.4: RP-HPLC C18, MeOH 72 % / acetate-buffered saline pH 7.4; for log k (logarithm of the capacity factor): RP-HPLC C18, MeOH 72 % / water 28 %
Source text: An HPLC system Agilent 1200 equipped with a DAD detector (Agilent, Santa Clara, CA, USA) was used. A chromatographic column Symmetry® C18 5 μm, 4.6×250 mm, part No. WAT054275 (Waters Corp., Milford, MA, USA) was used. The HPLC separation process was monitored and evaluated with EZChrom Elite software ver. 3.3.2 (Agilent). Isocratic elution by a mixture of MeOH p.a. (72 %) and H2O-HPLC Mili-Q grade (28 %) as a mobile phase was used for the determination of capacity factor k. Isocratic elution by a mixture of MeOH p.a. (72 %) and acetate-buffered saline (pH 7.4 and pH 6.5) (28 %) as a mobile phase was used for the determination of distribution coefficients expressed as D7.4 and D6.5. The total flow of the column was 1.0 mL min^-1, the injection volume was 20 μL, the column temperature was 40 °C, and the sample temperature was 10 °C. The detection wavelength of 210 nm was chosen. A KI methanolic solution was used to determine the dead times (tD). Retention times (tR) were measured in minutes. The capacity factors k were calculated according to the formula k = (tR–tD)/tD, where tR is the retention time of the solute, and tD is the dead time obtained using an unretained analyte. The distribution coefficients DpH were calculated according to the formula DpH = (tR–tD)/tD. Each experiment was repeated three times.
The capacity factor and distribution coefficients were measured by RP-HPLC on a C18 column with methanol as an organic modifier of the mobile phase. In addition to the experimental lipophilicities, predicted log P values were also calculated using ACD/Percepta, see Table 1. […] The values of σ(Ar) are found in a wide range from 0.01 to 1.36, so the compounds contain substituents with both electron-donating and slightly electron-withdrawing properties.

[2] = system: MRSA SA 3202; assay: Antibacterial screening, broth microdilution MIC; assay type: cell-based, methicillin-resistant S. aureus; details: Staphylococcus aureus, read-out: MIC MRSA SA 3202
[3] = system: Mycobacterium smegmatis ATCC 700084; assay: Antimycobacterial screening, broth dilution MIC; assay type: cell-based; details: Mycolicibacterium smegmatis, ATCC700084, 72 h; ATCC 700084, 3 days at 37 °C; read-out: MIC M. smegmatis
[4] = system: Mycobacterium tuberculosis ATCC 25177/H37Ra; assay: Antimycobacterial screening, broth dilution MIC (Alamar blue); assay type: cell-based; details: 336 h, H37Ra, 14 days at 37 °C, Alamar blue, read-out: MIC M. tuberculosis
Experimental: The evaluation of in vitro antimycobacterial activity of the compounds was performed against Mycobacterium tuberculosis ATCC 25177/H37Ra, Mycobacterium kansasii DSM 44162 and Mycobacterium smegmatis ATCC 700084.
The broth dilution micro-method in Middlebrook 7H9 medium (Difco, Lawrence, KS, USA) supplemented with ADC Enrichment (Difco) was used to determine the minimum inhibitory concentration (MIC) as previously described. […] The final concentrations of the evaluated compounds, ranging from 256 to 0.125 μg mL^-1, were obtained by twofold serial dilution of the stock solution in a microtiter plate with a sterile medium. Bacterial inocula were prepared by transferring colonies from culture to sterile water. The plate was inoculated by tested microorganisms. The final concentration of bacterial cells was 1.5×10^6 for M. tuberculosis and 10^5 cells in a microtiter plate for other mycobacteria. Isoniazid and rifampicin (Sigma) were used as reference antimycobacterial drugs. Drug-free controls, sterility controls, and controls consisting of medium and DMSO alone were included. The plates were incubated for a defined time at an appropriate temperature (3 days at 37 °C for M. smegmatis, and 14 days at 37 °C for M. tuberculosis and M. kansasii). […] The MICs against M. tuberculosis were evaluated by Alamar blue (Oxoid). After incubation, 10 % of Alamar blue was added to each well, and the plate was incubated for 24 h. The MIC values were assessed as the lowest concentration of the tested compounds, which prevented changing blue resazurin to pink resorufin. The experiments were repeated three times. The minimum inhibitory concentrations (MICs) were defined as the lowest concentration of the compound at which no visible bacterial growth was observed. The MIC value is routinely and widely used in bacterial assays and is a standard detection limit according to the CLSI [60].

[5] = system: VRE 368; assay: Antibacterial screening, broth microdilution MIC; assay type: cell-based, vancomycin-resistant E. faecalis; details: Enterococcus, vanA isolate, 24 h at 37 °C, read-out: MIC VRE 368
[6] = system: E. coli ATCC 25922; assay: Antibacterial screening, broth microdilution MIC; assay type: cell-based; details: Escherichia coli, ATCC25922; ATCC 25922, 24 h at 37 °C
[7] = system: Mycobacterium kansasii DSM 44162; assay: Antimycobacterial screening, broth dilution MIC; assay type: cell-based; details: DSM44162, 336 h, DSM 44162, 14 days at 37 °C, read-out: MIC M. kansasii
[8] = system: Enterococcus faecalis ATCC 29212; assay: Antibacterial screening, broth microdilution MIC; assay type: cell-based; details: ATCC29212, ATCC 29212, 24 h at 37 °C, read-out: MIC E. faecalis
[9] = system: MRSA SA 630; assay: Antibacterial screening, broth microdilution MIC; assay type: cell-based, methicillin-resistant S. aureus; details: Staphylococcus aureus, read-out: MIC MRSA SA 630
[10] = system: VRE 342B; assay: Antibacterial screening, broth microdilution MIC; assay type: cell-based, vancomycin-resistant E. faecalis; details: Enterococcus, vanA isolate, 24 h at 37 °C, read-out: MIC VRE 342B
[11] = system: S. aureus ATCC 29213; assay: Antibacterial screening, broth microdilution MIC; assay type: cell-based; details: Staphylococcus aureus, read-out: MIC S. aureus
[12] = system: MRSA 63718; assay: Antibacterial screening, broth microdilution MIC; assay type: cell-based, methicillin-resistant S. aureus; details: Staphylococcus aureus, clinical isolate, 24 h at 37 °C, read-out: MIC MRSA 63718
[13] = system: VRE 725B; assay: Antibacterial screening, broth microdilution MIC; assay type: cell-based, vancomycin-resistant E. faecalis; details: Enterococcus, vanA isolate, 24 h at 37 °C, read-out: MIC VRE 725B
[14] = Cytotoxicity assay (LDH); details: human
Experimental: Cytotoxicity of the compounds was determined using an LDH assay kit (Roche Diagnostics, Mannheim, Germany) as described previously. Human monocytic leukemia THP-1 cells (European Collection of Cell Cultures, Salisbury, UK) were exposed for 24 h at 37 °C to various compound concentrations ranging from 0.37 to 30 μM in RPMI 1640 medium. For LDH assays, cells were seeded into 96-well plates (5×10^4 cells/well in 100 μL culture medium) in triplicate in serum-free RPMI 1640 medium and measurements were taken 24 h after the treatment with the compounds. The maximum concentration of DMSO (Sigma) in the assays never exceeded 0.1 %. […] The median lethal dose values, LC50, were deduced through the production of a dose-response curve. All data from three independent experiments were evaluated using GraphPad Prism 5.00 software (GraphPadSoftware, San Diego, CA, USA).

[15] = clinical isolate, 24 h at 37 °C
[16] = ATCC29213, ATCC 29213, 24 h at 37 °C

Structure (SMILES)	log D6.5 [1]	log D7.4 [1]	log k (logarithm of the capacity factor) [1]	MIC [2, 15] [µM]	MIC [3] [µM]	MIC [4] [µM]	MIC [5] [µM]	MIC [6] [µM]	MIC [7] [µM]	MIC [8] [µM]	MIC [9, 15] [µM]	MIC [10] [µM]	MIC [11, 16] [µM]	MIC [12] [µM]	MIC [13] [µM]	MIC ([2]; 24 h) [µM]	MIC ([9]; 24 h) [µM]	MIC ([11]; ATCC29213, 24 h) [µM]	CC50 at 24 h [14] [nM]
Cc1cc(C)c(NC(=O)c2c(O)ccc3ccccc23)c(C)c1 [Compound 14, 2-Hydroxy-N-(2,4,6-trimethylphenyl)naphthalene-1-carboxamide]	0.2629	0.2691	0.2539	419 (≈ 128 µg/mL)	210 (≈ 64.1 µg/mL)	210 (≈ 64.1 µg/mL)	838 (≈ 256 µg/mL)	838 (≈ 256 µg/mL)	838 (≈ 256 µg/mL)	838 (≈ 256 µg/mL)	838 (≈ 256 µg/mL)	838 (≈ 256 µg/mL)	838 (≈ 256 µg/mL)	838 (≈ 256 µg/mL)	838 (≈ 256 µg/mL)	–	–	–	–
Cc1ccccc1NC(=O)c1c(O)ccc2ccccc12 [Compound 8, 2-hydroxy-N-(2-methylphenyl)naphthalene-1-carboxamide]	0.0745	0.0838	0.0858	462 (≈ 128 µg/mL)	462 (≈ 128 µg/mL)	231 (≈ 64.1 µg/mL)	462 (≈ 128 µg/mL)	462 (≈ 128 µg/mL)	115 (≈ 31.9 µg/mL)	462 (≈ 128 µg/mL)	462 (≈ 128 µg/mL)	462 (≈ 128 µg/mL)	462 (≈ 128 µg/mL)	462 (≈ 128 µg/mL)	462 (≈ 128 µg/mL)	–	–	–	–
Cc1cccc(C)c1NC(=O)c1c(O)ccc2ccccc12 [Compound 12, N-(2,6-Dimethylphenyl)-2-hydroxynaphthalene-1-carboxamide]	0.0838	0.0923	0.0785	–	879 (≈ 256 µg/mL)	439 (≈ 128 µg/mL)	879 (≈ 256 µg/mL)	879 (≈ 256 µg/mL)	879 (≈ 256 µg/mL)	879 (≈ 256 µg/mL)	–	879 (≈ 256 µg/mL)	–	879 (≈ 256 µg/mL)	879 (≈ 256 µg/mL)	439 (≈ 128 µg/mL)	439 (≈ 128 µg/mL)	439 (≈ 128 µg/mL)	–
CC[C@@]1(O)C(=O)OCc2c1cc1n(c2=O)Cc2cc3ccccc3nc2-1 [CMP, camptothecin, reference compound]	–	–	–	–	–	–	–	–	–	–	–	–	–	–	–	–	–	–	160 ± 70
Cc1ccc(C)c(NC(=O)c2c(O)ccc3ccccc23)c1 [Compound 11, N-(2,5-Dimethylphenyl)-2-hydroxynaphthalene-1-carboxamide]	0.2455	0.2514	0.2486	110 (≈ 32 µg/mL)	220 (≈ 64.1 µg/mL)	439 (≈ 128 µg/mL)	879 (≈ 256 µg/mL)	879 (≈ 256 µg/mL)	110 (≈ 32 µg/mL)	879 (≈ 256 µg/mL)	110 (≈ 32 µg/mL)	879 (≈ 256 µg/mL)	110 (≈ 32 µg/mL)	110 (≈ 32 µg/mL)	879 (≈ 256 µg/mL)	–	–	–	–
